Measurements taken from US12440492B2, “Pharmaceutical compositions comprising AKT protein kinase inhibitors” (Genentech, Inc., priority 2016, dated 2025).
Values joined by “and” are separate entries in the source; they are usually repeats but may differ in a detail not shown here. Equal values may be shown once. Where a name gives a salt, the structure may show the parent alone.

Legend:
Type in all cases: physicochemical
[1] = Bulk density, tapped density and Carr index; settings: for Bulk density / Tapped density: monohydrochloride
[2] = Particle size distribution (d10, d50, d90) by laser diffraction
Excerpt: FIG. 6 illustrates particle size distribution of the material of Example 6C (Batch HQ00003) spray dried with two-feed nozzle as obtained by laser diffraction A bimodal particle size distribution is obvious. FIG. 9 illustrates particle size distribution of spray dried material with rotary wheel nozzle, i.e. of the material of batch BS1506SA03 of Example 13 (Table 20) obtained using a Malvern Mastersizer 2000 equipped with Hydro 2000S wet sample dispersion unit (Malvern Instruments Ltd, Malvern/UK). A monomodal particle size distribution is obvious. The terms “d50 value” (sometimes also referred to as “d(0.5)-value”) and “mass-median diameter” (or MMD) can be used interchangeably and denote the average particle size by mass, i.e. the average equivalent diameter of a particle, which is defined as the diameter where 50% (w) of the particles of the ensemble have a larger equivalent spherical diameter, and the other 50% (w) have a smaller equivalent spherical diameter. In analogy, the term “d10-value” denotes the particle diameter wherein 10% (w) of the particles of the ensemble have a smaller equivalent spherical diameter. In analogy, the term “d90-value” denotes the particle diameter wherein 90% (w) of the particles of the ensemble have a smaller equivalent spherical diameter.

[3] = Solid state by X-ray powder diffraction; settings: * indicates absence of crystalline API; for Solid state / Polymorphy (X-Ray, XRPD): monohydrochloride
Excerpt: Bragg's law describes the diffraction of crystalline material with the equation “2d·sin(theta)=n·lambda”, wherein “d” denotes perpendicular distance (in Angstroms) between pairs of adjacent planes in a crystal (“d-spacing”), “theta” denotes the Bragg angle, “lambda” denotes the wavelength and “n” is an integer. When Bragg's law is fulfilled, the reflected beams are in phase and interfere constructively so that Bragg diffraction peaks are observed in the X-ray diffraction pattern. At angles of incidence other than the Bragg angle, reflected beams are out of phase and destructive interference or cancellation occurs. […] The XRPD pattern of an amorphous material is further characterized by one or more amorphous halos.
The term “XRPD” denotes the analytical method of X-Ray Powder Diffraction. The repeatability of the angular values is in the range of 2Theta±0.2°, more particularly in the range of 2Theta±0.1°. The term “approximately” given in combination with an angular value denotes the variance which is in the range of 2Theta±0.2°, particularly in the range of 2Theta±0.1°. The relative XRPD peak intensity is dependent upon many factors such as structure factor, temperature factor, crystallinity, polarization factor, multiplicity, and Lorentz factor. Relative intensities may vary considerably from one measurement to another due to preferred orientation effects. According to USP 941 (US Pharmacopoeia, 37th Edition, General Chapter 941), relative intensities between two samples of the same material may vary considerably due to “preferred orientation” effects. Anisotropic materials adopting preferred orientation will lead to anisotropic distribution of properties such as modulus, strength, ductility, toughness, electrical conductivity, thermal expansion, etc., as described e.g. in Kocks U. F. et al. (Texture and Anisotropy: Preferred Orientations in Polycrystals and Their Effect on Materials Properties, Cambridge University Press, 2000). In XRPD but also Raman spectroscopy, preferred orientations cause a change in the intensity distribution. Preferred orientation effects are particularly pronounced with crystalline APIs of relatively large particle size.

[4] = Shear cell testing with Ring Shear Tester RST-XS
Excerpt: Similar to the classification used by Jenike (Dietmar Schulze, Pulver und Schüttgüter, 2009 Springer Verlag Berlin/DE), one can define flow behaviour based on the flow function constant (ffc) as follows:
The larger the flow function constant ffc, i.e., the smaller the ratio of the unconfined yield strength (σc) to the consolidation stress (σ1), the better a bulk solid's flow.

[5] = spray-dried amorphous ipatasertib monohydrochloride, rotary wheel atomizer
[6] = Pre-shear stress 1000 PA, 30 mL shear cell, monohydrochloride
[7] = spray dried amorphous ipatasertib monohydrochloride powder

For CC(C)NC[C@@H](C(=O)N1CCN(c2ncnc3c2[C@H](C)C[C@H]3O)CC1)c1ccc(Cl)cc1 [BS1506SA01, ipatasertib monohydrochloride], the Bulk density [1, 5] was 0.41 gcm^−3, the Tapped density [1, 5] was 0.57 gcm^−3 and the “Particle size d10” value [2, 5] was 11 μm. The “Particle size d50” value [2, 5] was 31 μm, the “Particle size d90” value [2, 5] was 64 μm and the “Polymorphy (X-Ray)” value [3] was “amorphous*”. The “Consolidation stress (σ1)” value [4, 6] was 1725 PA and the “Flow Function Constant (ffc)” value [4, 6] was 4.0.
For CC(C)NC[C@@H](C(=O)N1CCN(c2ncnc3c2[C@H](C)C[C@H]3O)CC1)c1ccc(Cl)cc1 [BS1506SA02, ipatasertib monohydrochloride], the Bulk density [1, 5] was 0.40 gcm^−3, the Tapped density [1, 5] was 0.52 gcm^−3 and the “Particle size d10” value [2, 5] was 11 μm. For the same compound, the “Particle size d50” value [2, 5] was 31 μm, the “Particle size d90” value [2, 5] was 64 μm and the “Polymorphy (X-Ray)” value [3] was “amorphous*”. For the same compound, the “Consolidation stress (σ1)” value [4, 6] was 1701 PA and the “Flow Function Constant (ffc)” value [4, 6] was 3.5.
For CC(C)NC[C@@H](C(=O)N1CCN(c2ncnc3c2[C@H](C)C[C@H]3O)CC1)c1ccc(Cl)cc1 [BS1506SA03, ipatasertib monohydrochloride], the Bulk density [1, 5] was 0.39 gcm^−3, the Tapped density [1, 5] was 0.55 gcm^−3 and the “particle size distribution shape” value ([2]; laser diffraction, monohydrochloride) was “monomodal”. The “Particle size d10” value [2, 5] was 12 μm, the “Particle size d50” value [2, 5] was 31 μm and the “Particle size d90” value [2, 5] was 62 μm. For the same compound, the “Polymorphy (X-Ray)” value [3] was “amorphous*”, the “Consolidation stress (σ1)” value [4, 6] was 1709 PA and the “Flow Function Constant (ffc)” value [4, 6] was 2.9.
In the case of CC(C)NC[C@@H](C(=O)N1CCN(c2ncnc3c2[C@H](C)C[C@H]3O)CC1)c1ccc(Cl)cc1 [BS1506SA04, ipatasertib monohydrochloride], the Bulk density [1, 5] is reported as 0.40 gcm^−3, the Tapped density [1, 5] is reported as 0.56 gcm^−3 and the “Particle size d10” value [2, 5] is reported as 11 μm. The “Particle size d50” value [2, 5] was 30 μm, the “Particle size d90” value [2, 5] was 62 μm and the “Polymorphy (X-Ray)” value [3] was “amorphous*”. The “Consolidation stress (σ1)” value [4, 6] was 1707 PA and the “Flow Function Constant (ffc)” value [4, 6] was 3.2.
With CC(C)NC[C@@H](C(=O)N1CCN(c2ncnc3c2[C@H](C)C[C@H]3O)CC1)c1ccc(Cl)cc1 [BS1506SA05, ipatasertib monohydrochloride] the Bulk density [1, 5] was 0.41 gcm^−3, the Tapped density [1, 5] was 0.57 gcm^−3 and the “Particle size d10” value [2, 5] was 13 μm. The “Particle size d50” value [2, 5] was 33 μm, the “Particle size d90” value [2, 5] was 65 μm and the “Polymorphy (X-Ray)” value [3] was “amorphous*”. For the same compound, the “Consolidation stress (σ1)” value [4, 6] was 1668 PA and the “Flow Function Constant (ffc)” value [4, 6] was 3.5.
With CC(C)NC[C@@H](C(=O)N1CCN(c2ncnc3c2[C@H](C)C[C@H]3O)CC1)c1ccc(Cl)cc1 [BS1506SA06, ipatasertib monohydrochloride] the Bulk density [1, 5] was 0.41 gcm^−3, the Tapped density [1, 5] was 0.56 gcm^−3 and the “Particle size d10” value [2, 5] was 12 μm. For the same compound, the “Particle size d50” value [2, 5] was 32 μm, the “Particle size d90” value [2, 5] was 63 μm and the “Polymorphy (X-Ray)” value [3] was “amorphous*”. For the same compound, the “Consolidation stress (σ1)” value [4, 6] was 1683 PA and the “Flow Function Constant (ffc)” value [4, 6] was 3.2.
With CC(C)NC[C@@H](C(=O)N1CCN(c2ncnc3c2[C@H](C)C[C@H]3O)CC1)c1ccc(Cl)cc1 [BS1506SA07, ipatasertib monohydrochloride] the Bulk density [1, 5] was 0.42 gcm^−3, the Tapped density [1, 5] was 0.56 gcm^−3 and the “Particle size d10” value [2, 5] was 13 μm. The “Particle size d50” value [2, 5] was 32 μm, the “Particle size d90” value [2, 5] was 65 μm and the “Polymorphy (X-Ray)” value [3] was “amorphous*”. The “Consolidation stress (σ1)” value [4, 6] was 1705 PA and the “Flow Function Constant (ffc)” value [4, 6] was 3.1.
With CC(C)NC[C@@H](C(=O)N1CCN(c2ncnc3c2[C@H](C)C[C@H]3O)CC1)c1ccc(Cl)cc1 [BS1506SA08, ipatasertib monohydrochloride] the Bulk density [1, 5] was 0.43 gcm^−3, the Tapped density [1, 5] was 0.56 gcm^−3 and the “Particle size d10” value [2, 5] was 13 μm. For the same compound, the “Particle size d50” value [2, 5] was 34 μm, the “Particle size d90” value [2, 5] was 68 μm and the “Polymorphy (X-Ray)” value [3] was “amorphous*”. For the same compound, the “Consolidation stress (σ1)” value [4, 6] was 1686 PA and the “Flow Function Constant (ffc)” value [4, 6] was 3.4.
In the case of CC(C)NC[C@@H](C(=O)N1CCN(c2ncnc3c2[C@H](C)C[C@H]3O)CC1)c1ccc(Cl)cc1 [Composition 140210414, ipatasertib monohydrochloride], the Bulk density [1, 7] is reported as 0.48 gcm^−3, the Tapped density [1, 7] is reported as 0.57 gcm^−3 and the “Particle size d10” value [2, 7] is reported as 18 μm. The “Particle size d50” value [2, 7] was 53 μm, the “Particle size d90” value [2, 7] was 109 μm and the “Solid state / Polymorphy (X-Ray, XRPD)” value [3] was “amorphous*”.
In the case of CC(C)NC[C@@H](C(=O)N1CCN(c2ncnc3c2[C@H](C)C[C@H]3O)CC1)c1ccc(Cl)cc1 [Composition 141210421, ipatasertib monohydrochloride], the Bulk density [1, 7] is reported as 0.38 gcm^−3, the Tapped density [1, 7] is reported as 0.55 gcm^−3 and the “Particle size d10” value [2, 7] is reported as 10 μm. The “Particle size d50” value [2, 7] was 28 μm, the “Particle size d90” value [2, 7] was 56 μm and the “Solid state / Polymorphy (X-Ray, XRPD)” value [3] was “amorph.*”.
For CC(C)NC[C@@H](C(=O)N1CCN(c2ncnc3c2[C@H](C)C[C@H]3O)CC1)c1ccc(Cl)cc1 [Composition 141210422, ipatasertib monohydrochloride], the Bulk density [1, 7] was 0.37 gcm^−3, the Tapped density [1, 7] was 0.54 gcm^−3 and the “Particle size d10” value [2, 7] was 9.6 μm. For the same compound, the “Particle size d50” value [2, 7] was 27 μm, the “Particle size d90” value [2, 7] was 54 μm and the “Solid state / Polymorphy (X-Ray, XRPD)” value [3] was “amorph.*”.
With CC(C)NC[C@@H](C(=O)N1CCN(c2ncnc3c2[C@H](C)C[C@H]3O)CC1)c1ccc(Cl)cc1 [Composition 141210423, ipatasertib monohydrochloride] the Bulk density [1, 7] was 0.39 gcm^−3, the Tapped density [1, 7] was 0.55 gcm^−3 and the “Particle size d10” value [2, 7] was 10 μm. The “Particle size d50” value [2, 7] was 28 μm, the “Particle size d90” value [2, 7] was 56 μm and the “Solid state / Polymorphy (X-Ray, XRPD)” value [3] was “amorph.*”.
With CC(C)NC[C@@H](C(=O)N1CCN(c2ncnc3c2[C@H](C)C[C@H]3O)CC1)c1ccc(Cl)cc1 [Composition 141210424, ipatasertib monohydrochloride] the Bulk density [1, 7] was 0.37 gcm^−3, the Tapped density [1, 7] was 0.54 gcm^−3 and the “Particle size d10” value [2, 7] was 9.5 μm. For the same compound, the “Particle size d50” value [2, 7] was 27 μm, the “Particle size d90” value [2, 7] was 54 μm and the “Solid state / Polymorphy (X-Ray, XRPD)” value [3] was “amorph.*”.
In the case of CC(C)NC[C@@H](C(=O)N1CCN(c2ncnc3c2[C@H](C)C[C@H]3O)CC1)c1ccc(Cl)cc1 [Composition 141210425, ipatasertib monohydrochloride], the Bulk density [1, 7] is reported as 0.39 gcm^−3, the Tapped density [1, 7] is reported as 0.54 gcm^−3 and the “Particle size d10” value [2, 7] is reported as 11 μm. The “Particle size d50” value [2, 7] was 39 μm, the “Particle size d90” value [2, 7] was 80 μm and the “Solid state / Polymorphy (X-Ray, XRPD)” value [3] was “amorph.*”.
In the case of CC(C)NC[C@@H](C(=O)N1CCN(c2ncnc3c2[C@H](C)C[C@H]3O)CC1)c1ccc(Cl)cc1 [Composition 141210426, ipatasertib monohydrochloride], the Bulk density [1, 7] is reported as 0.24 gcm^−3, the Tapped density [1, 7] is reported as 0.37 gcm^−3 and the “Particle size d10” value [2, 7] is reported as 8.5 μm. The “Particle size d50” value [2, 7] was 21 μm, the “Particle size d90” value [2, 7] was 43 μm and the “Solid state / Polymorphy (X-Ray, XRPD)” value [3] was “amorph.*”.
For CC(C)NC[C@@H](C(=O)N1CCN(c2ncnc3c2[C@H](C)C[C@H]3O)CC1)c1ccc(Cl)cc1 [Example 6C′, ipatasertib monohydrochloride], the “Carr Index” value [1, 7] was 38%, the Bulk density [1, 7] was 0.262 gcm^−3 and 0.26 gcm^−3 and the Tapped density [1, 7] was 0.423 gcm^−3 and 0.42 gcm^−3. For the same compound, the “Particle size d10” value [2, 7] was 0.8 μm, the “Particle size d50” value [2, 7] was 3.0 μm and the “Particle size d90” value [2, 7] was 5.7 μm. For the same compound, the “Consolidation stress (σ1)” value ([4]; Pre-shear stress 1000 PA) was 2118 PA, the “Flow Function Constant (ffc)” value ([4]; Pre-shear stress 1000 PA) was 1.08 and the tc ([4]; Pre-shear stress 1000 PA) was 514 Pa. The “Consolidation stress (σ1)” value ([4]; Pre-shear stress 2000 PA) was 4844 PA, the “Flow Function Constant (ffc)” value ([4]; Pre-shear stress 2000 PA) was 1.09 and the tc ([4]; Pre-shear stress 2000 PA) was 1095 Pa. For the same compound, the “Consolidation stress (σ1)” value ([4]; Pre-shear stress 4000 PA) was 9557 PA, the “Flow Function Constant (ffc)” value ([4]; Pre-shear stress 4000 PA) was 1.12 and the tc ([4]; Pre-shear stress 4000 PA) was 2041 Pa. The ffc ([4]; across all pre-shear stresses) was “around 1.1” and the flowability ([4]; shear cell testing) was “very poor flowability”.
